The inhibition is how much of the control response was suppressed. Usually IC50 stands for the midpoint of a concentration-inhibition curve.

What all share (assay type): cell-based
One assay has as its system DU145 cells. Nature of the assay: Matrigel invasion assay. The note with it: Homo sapiens, DU-145, 20 h, read-out: inhibition of cell invasion compared with control. As to the method: (§1) A.1-NA- PP1 blocked prostate cancer cell migration. PC3 cells were grown to confluence in 6-well plates. Monolayer was wounded and imaged immediately (0 h). […] Percentage wound healing was calculated as the percent of healed wound area as compared to the original wound. […] After 20 h, noninvasive cells were removed and invasive cells were fixed in 100% methanol, stained in 0.4% hematoxylin solution, and photographed. The number of cells that invaded the Matrigel matrix was determined by cell counts in 6 fields relative to the number of cells that migrated through the control insert. Percentage invasion was calculated as the percent of the cells invaded through Matrigel inserts vs. the total cells migrated through the control inserts. C. […] DU145 cells were infected with null, PKD1, and PKD3 adenoviruses (Adv-null, Adv-PKD1, and Adv-PKD3) at 100 MOI. […]
DU145 cells (4.0×10^4 cells/ml) in RPMI containing 0.1% fetal bovine serum (FBS) were seeded into the top chamber of BioCoat control inserts (pore size 8 µm) or BioCoat Matrigel invasion inserts with Matrigel-coated filters (BD Pharmingen). […] After staining, cells were counted under a microscope (200× magnification). The percentage invasion was determined by cell counts in […] of the number of cells that invaded the Matrigel matrix relative to the number of cells that migrated through the control insert.

For assay [1], the system named is PC3 cells. Nature of the assay: MTT assay. Here is the method: PC3 cells were plated in triplicates in 24-well plates. Cells were allowed to attach overnight. […] Cells were counted daily for a total of 5 days. Fresh media and inhibitor were added every 2 days. The means of triplicate determinations were plotted over time. The experiment was repeated twice and results from one representative experiment are shown. […] PC3 cells were seeded into 96-well plates (3000 cells/well) and were then incubated in media containing 0.3–100 µM inhibitors for 72 h. MTT solution was added to each well and incubated for 4 h. Optical density was read at 570 nm to determine cell viability. The IC50 was determined as the mean of two independent experiments for each compound. C. […] Cell cycle distribution was determined by flow cytometry after propidium iodide labeling of fixed cells. Statistical significance was determined by unpaired t-test and is indicated. **, p<0.01; ***, p<0.001. […] The label 1-NA-PP1 is taken from panels A and C, where it is the only substance named in the picture.
PC3 cells were seeded into 96-well plates (3000 cells/well) and allowed to attach overnight. Cells were then incubated in media containing […] inhibitors for 72 h. […] The plate was mix by shaking for 5 min and the optical density was determined at 570 nm.
On the technique in general: Formazan colour is commonly taken as a measure of viable cells.

In assay [2] the test system is DU145 cells infected with Adv-PKD1 or Adv-PKD3.
Experimental: DU145 cells were infected with null, PKD1, and PKD3 adenoviruses (Adv-null, Adv-PKD1, and Adv-PKD3) at 100 MOI. […] The number of cells that migrated was determined by cell counts in 6 fields. Percentage migration was calculated as the percent of the Adv-null treated with vehicle DMSO (set to 100%). The experiment was repeated three times and data from a representative experiment are shown.
Assay [3] deals with PC3 cells. Nature of the assay: Wound healing assay (cell migration). The note with it: PC3, 30 µM, 22 h after wounding; control completely closed. Here is the method: as §1, with “MOI. After 24 h, cells were replated in control and Matrigel inserts, and a Matrigel invasion assay was conducted as described above. The overexpression of PKD1 and PKD3 was confirmed by Western blotting analysis (images below the graphs).” for “MOI.”
PC3 or DU145 cells were grown to confluence in 6-well plates. […] The wound gap was measured, and % wound healing was calculated. The average % wound healing was determined based on at least 6 measurements of the wound gap.

Assay [4] has as its system DU145 cells infected with Adv-PKD1 or Adv-PKD3. The source holds these as a separate data set.
Experimental: After 20 h, noninvasive cells were removed and invasive cells were fixed in 100% methanol, stained in 0.4% hematoxylin solution, and photographed. The number of cells that invaded the Matrigel matrix was determined by cell counts in 6 fields relative to the number of cells that migrated through the control insert. Percentage invasion was calculated as the percent of the cells invaded through Matrigel inserts vs. the total cells migrated through the control inserts. […] DU145 cells were infected with null, PKD1, and PKD3 adenoviruses (Adv-null, Adv-PKD1, and Adv-PKD3) at 100 MOI. After 24 h, cells were replated in control and Matrigel inserts, and a Matrigel invasion assay was conducted as described above. […] All the above experiments were repeated at least three times and data from a representative experiment are shown.

Where two headings read alike, the source gives them in different places.

`CC(C)(C)n1nc(-c2cccc3ccccc23)c2c(N)ncnc21` [Compound 1-NA-PP1, 1-(t-Butyl)-3-(naphthalen-1-yl)-1H-pyrazolo[3,4-d]pyrimidin-4-amine]: in the assay with DU145 cells, the inhibition at 30 µM was more than 60%. The IC50 is 23.3 ± 5.7 µM in the assay on PC3 cells [1] (Homo sapiens, PC-3, 72 h, read-out: IC50 for cell death (MTT), PC3 cells, 72 h) and approximately 20 µM in the assay on PC3 cells [1] (read-out: IC50 for cell death (MTT), PC3 cells, 72 h). Also, the “effect of PKD1 or PKD3 overexpression on inhibition of cell migration” value in assay [2] is reported as “did not affect”. Further, in the assay on PC3 cells [3], the “wounded area remaining open” value is 88.6%. For the same compound, in assay [4], the “effect of PKD1 or PKD3 overexpression on inhibition of cell invasion” value was “completely reversed”.
